Here are results for 88 compounds from ChEMBL document CHEMBL5260833, “An overview of quinazolines: Pharmacological significance and recent developments” (Eur J Med Chem, 2018).

For one assay, the system named is Rattus norvegicus. Nature of the assay: Antiinflammatory activity in carrageenan induced rat at assessed as reduction in paw edema 50 mg/kg, po relative to control. The assay is classed as functional. More on the design: scale not given: the % may be the effect or the level left.
Conditions: not given
In the case of `COc1ccc(/C=C/C(=O)NN2C(=O)CC2c2nc3ccc(Br)cc3c(=O)n2-c2cccc(Cl)c2)cc1` (stereo not drawn), the Activity is 10.28%. Still for that read-out and setting: then `COc1ccc(/C=C/C(=O)NNCc2nc3ccc(Br)cc3c(=O)n2-c2ccccc2)cc1`, with 10.28%; and `COc1ccccc1-n1c(CNNC(C)=O)nc2ccccc2c1=O`, with 10.28%. Turning to `NNCc1nc2ccc(Br)cc2c(=O)n1-c1ccccc1`, the Activity amounted to 10.28%.

Take `CC(C)c1ccc(/C=C/C(=O)NN2C(=O)CC2c2nc3ccccc3c(=O)n2-c2ccccc2Cl)cc1` (stereo not drawn): the Activity came out at 10.28%. Still for that read-out and setting: then `O=C(/C=C/c1ccccc1)NNCc1nc2ccc(Br)cc2c(=O)n1-c1cccc(Cl)c1`, with 10.28%; and `O=c1c2ccccc2nc(CBr)n1-c1ccccc1Cl`, with 10.28%. For `COc1ccc(/C=C/C(=O)NN2C(=O)CC2c2nc3ccc(Br)cc3c(=O)n2-c2ccccc2)cc1` (stereo not drawn), the Activity is 10.28%. For `COc1ccccc1-n1c(C2CC(=O)N2NC(=O)/C=C/c2ccc(C(C)C)cc2)nc2ccccc2c1=O` (stereo not drawn), the Activity is 10.28%. Still for that read-out and setting: then `CC(C)c1ccc(/C=C/C(=O)NNCc2nc3ccc(Br)cc3c(=O)n2-c2cccc(Cl)c2)cc1`, with 10.28%. Turning to `CC(C)c1ccc(/C=C/C(=O)NN2C(=O)CC2c2nc3ccc(Br)cc3c(=O)n2-c2ccccc2)cc1` (stereo not drawn), the Activity turned out to be 10.28%. Same read-out and setting: as for `NNCc1nc2ccc(Br)cc2c(=O)n1-c1cccc(Cl)c1`, the figure is 10.28%; as for `CC(=O)NNCc1nc2ccc(Br)cc2c(=O)n1-c1cccc(Cl)c1`, 10.28%; as for `COc1cc(/C=C/C(=O)NNCc2nc3ccccc3c(=O)n2-c2ccccc2Cl)ccc1O`, 10.28%. Same read-out and setting: as for `COc1ccccc1-n1c(CNN)nc2ccccc2c1=O`, the figure is 10.28%; as for `COc1ccccc1-n1c(CNNC(=O)/C=C/c2ccc(C(C)C)cc2)nc2ccccc2c1=O`, 10.28%; as for `COc1ccccc1-n1c(CBr)nc2ccccc2c1=O`, 10.28%. Same read-out and setting: as for `COc1ccc(/C=C/C(=O)NNCc2nc3ccc(Br)cc3c(=O)n2-c2cccc(Cl)c2)cc1`, the figure is 10.28%; as for `CN(C)c1ccc(/C=C/C(=O)NNCc2nc3ccccc3c(=O)n2-c2ccccc2Cl)cc1`, 10.28%.

Regarding `CC(C)c1ccc(/C=C/C(=O)NN2C(=O)CC2c2nc3ccc(Br)cc3c(=O)n2-c2cccc(Cl)c2)cc1` (stereo not drawn), the Activity came out at 10.28%.

Regarding `COc1ccc(/C=C/C(=O)NNCc2nc3ccccc3c(=O)n2-c2ccccc2Cl)cc1`, the Activity came out at 10.28%.

`O=C(/C=C/c1ccccc1)NN1C(=O)CC1c1nc2ccccc2c(=O)n1-c1ccccc1Cl` (stereo not drawn): the Activity is 10.28%.

In the case of `O=C(/C=C/c1ccccc1)NN1C(=O)CC1c1nc2ccc(Br)cc2c(=O)n1-c1ccccc1` (stereo not drawn), the Activity is given as 10.28%.

For `COc1cc(/C=C/C(=O)NNCc2nc3ccc(Br)cc3c(=O)n2-c2cccc(Cl)c2)ccc1O`, the Activity amounted to 10.28%. The same measure, in the same setting: then `COc1cc(/C=C/C(=O)NNCc2nc3ccc(Br)cc3c(=O)n2-c2ccccc2)ccc1O`, with 10.28%.

For the compound `COc1cc(/C=C/C(=O)NN2C(=O)CC2c2nc3ccccc3c(=O)n2-c2ccccc2OC)ccc1O` (stereo not drawn), the Activity turned out to be 10.28%. On to `O=c1c2cc(Br)ccc2nc(CBr)n1-c1cccc(Cl)c1`, for which the Activity amounted to 10.28%. The same measure, in the same setting: then `NNCc1nc2ccccc2c(=O)n1-c1ccccc1Cl`, with 10.28%; and `CC(=O)NNCc1nc2ccccc2c(=O)n1-c1ccccc1Cl`, with 10.28%; and `COc1cc(/C=C/C(=O)NNCc2nc3ccccc3c(=O)n2-c2ccccc2OC)ccc1O`, with 10.28%. The same measure, in the same setting: as for `COc1cc(/C=C/C(=O)NN2C(=O)CC2c2nc3ccc(Br)cc3c(=O)n2-c2ccccc2)ccc1O` (stereo not drawn), the figure is 10.28%; as for `O=C(/C=C/c1ccccc1)NNCc1nc2ccccc2c(=O)n1-c1ccccc1Cl`, 10.28%. Still for that read-out and setting: then `COc1cc(/C=C/C(=O)NN2C(=O)CC2c2nc3ccc(Br)cc3c(=O)n2-c2cccc(Cl)c2)ccc1O` (stereo not drawn), with 10.28%. Turning to `CC(=O)NNCc1nc2ccc(Br)cc2c(=O)n1-c1ccccc1`, the Activity was 10.28%. On the same count and under the same terms, as for `O=c1c2cc(Br)ccc2nc(CBr)n1-c1ccccc1`, the figure is 10.28%. For the compound `COc1ccc(/C=C/C(=O)NN2C(=O)CC2c2nc3ccccc3c(=O)n2-c2ccccc2Cl)cc1` (stereo not drawn), the Activity is 10.28%. Consider `CC(C)c1ccc(/C=C/C(=O)NNCc2nc3ccc(Br)cc3c(=O)n2-c2ccccc2)cc1`, for which the Activity turned out to be 10.28%. As to `COc1cc(/C=C/C(=O)NN2C(=O)CC2c2nc3ccccc3c(=O)n2-c2ccccc2Cl)ccc1O` (stereo not drawn), the Activity is reported as 10.28%. On the same count and under the same terms, then `O=C(/C=C/c1ccccc1)NNCc1nc2ccc(Br)cc2c(=O)n1-c1ccccc1`, with 10.28%; and `O=C(/C=C/c1ccccc1)NN1C(=O)CC1c1nc2ccc(Br)cc2c(=O)n1-c1cccc(Cl)c1` (stereo not drawn), with 10.28%.

For the next assay, the system named is Rattus norvegicus. Nature of the assay: Anticonvulsant activity in ip dosed albino rat measured after 1 hrs. Format: functional.
Conditions: not given
For `Cc1nc2ccccc2c(=O)n1NC(=O)/C=C/c1ccccc1`, the Activity was 50%.

`CC(=O)Nn1c(C)nc2ccc(Br)cc2c1=O` had an Activity of 50%. Still for that read-out and setting: as for `Cc1nc2ccc(Br)cc2c(=O)n1NC(=O)/C=C/c1ccccc1`, the figure is 50%; as for `Cc1nc2ccc(Br)cc2c(=O)n1NC(=O)/C=C/c1ccc(O)cc1`, 50%.

`Cc1nc2ccc(Br)cc2c(=O)n1NC(=O)/C=C/c1ccc(N(C)C)cc1` displayed an Activity of 50%. For the compound `COc1cc(C2CC(Nn3c(C)nc4ccccc4c3=O)=NN2C(C)=O)ccc1O` (stereo not drawn), the Activity was 50%. Still for that read-out and setting: then `COc1ccc(C2CC(Nn3c(C)nc4ccc(Br)cc4c3=O)=NN2C(C)=O)cc1` (stereo not drawn), with 50%; and `Cc1nc2ccc(Br)cc2c(=O)n1NC1=NOC(c2ccccc2)C1` (stereo not drawn), with 50%; and `Cc1nc2ccc(Br)cc2c(=O)n1NC1=NOC(c2ccc(O)cc2)C1` (stereo not drawn), with 50%. In the case of `COc1ccc(/C=C/C(=O)Nn2c(C)nc3ccccc3c2=O)cc1`, the Activity is 50%.

`CC(=O)N1N=C(Nn2c(C)nc3ccccc3c2=O)CC1c1ccc(N(C)C)cc1` (stereo not drawn) gave an Activity of 50%.

Consider `CC(=O)Nn1c(C)nc2ccccc2c1=O`, for which the Activity stood at 50%.

For `Cc1nc2ccccc2c(=O)n1NC(=O)/C=C/c1ccc(N(C)C)cc1`, the Activity stood at 50%.

`Cc1nc2ccc(Br)cc2c(=O)n1NC1=NOC(c2ccc(N(C)C)cc2)C1` (stereo not drawn) registered an Activity of 50%. With `COc1cc(C2CC(Nn3c(C)nc4ccc(Br)cc4c3=O)=NO2)ccc1O` (stereo not drawn), the Activity was 50%. Same read-out and setting: as for `COc1ccc(/C=C/C(=O)Nn2c(C)nc3ccc(Br)cc3c2=O)cc1`, the figure is 50%; as for `COc1cc(/C=C/C(=O)Nn2c(C)nc3ccc(Br)cc3c2=O)ccc1O`, 50%.

In turn, `COc1cc(C2CC(Nn3c(C)nc4ccc(Br)cc4c3=O)=NN2C(C)=O)ccc1O` (stereo not drawn) yielded an Activity of 50%.

`CC(=O)N1N=C(Nn2c(C)nc3ccccc3c2=O)CC1c1ccc(O)cc1` (stereo not drawn) gave an Activity of 50%.

As to `COc1ccc(C2CC(Nn3c(C)nc4ccc(Br)cc4c3=O)=NO2)cc1` (stereo not drawn), the Activity is reported as 50%. For the compound `CC(=O)N1N=C(Nn2c(C)nc3ccc(Br)cc3c2=O)CC1c1ccc(O)cc1` (stereo not drawn), the Activity came out at 50%. Still for that read-out and setting: then `Cc1nc2ccccc2c(=O)n1NC1=NOC(c2ccc(N(C)C)cc2)C1` (stereo not drawn), with 50%. For `Cc1nc2ccccc2c(=O)n1NC(=O)/C=C/c1ccc(O)cc1`, the Activity was 50%. The compound `CC(=O)N1N=C(Nn2c(C)nc3ccc(Br)cc3c2=O)CC1c1ccc(N(C)C)cc1` (stereo not drawn) showed an Activity of 50%. Still for that read-out and setting: then `COc1ccc(C2CC(Nn3c(C)nc4ccccc4c3=O)=NN2C(C)=O)cc1` (stereo not drawn), with 50%. `Cc1nc2ccccc2c(=O)n1NC1=NOC(c2ccccc2)C1` (stereo not drawn) yielded an Activity of 50%. The same measure, in the same setting: then `Cc1nc2ccccc2c(=O)n1NC1=NOC(c2ccc(O)cc2)C1` (stereo not drawn), with 50%; and `COc1cc(C2CC(Nn3c(C)nc4ccccc4c3=O)=NO2)ccc1O` (stereo not drawn), with 50%; and `CC(=O)N1N=C(Nn2c(C)nc3ccccc3c2=O)CC1c1ccccc1` (stereo not drawn), with 50%. On the same count and under the same terms, as for `COc1cc(/C=C/C(=O)Nn2c(C)nc3ccccc3c2=O)ccc1O`, the figure is 50%; as for `COc1ccc(C2CC(Nn3c(C)nc4ccccc4c3=O)=NO2)cc1` (stereo not drawn), 50%. For the compound `CC(=O)N1N=C(Nn2c(C)nc3ccc(Br)cc3c2=O)CC1c1ccccc1` (stereo not drawn), the Activity is on record as 50%.

The test system of another assay is Tobacco mosaic virus. Briefly: Antiviral activity against TMV at 500 microg/ml. The assay is classed as functional. To be noted: dose 500 µg/ml.
`O=c1c2ccccc2nc(-c2ccccc2)n1/C=C/c1c(Cl)cccc1Cl`: the Activity is reported as 54%. `O=c1c2ccccc2nc(-c2ccccc2)n1/C=C/c1cccc(Cl)c1Cl` gave an Activity of 54%. Still for that read-out and setting: as for `Cc1nc2ccc(Br)cc2c(=O)n1/C=C/c1cccc(F)c1`, the figure is 54%; as for `Cc1nc2ccc(Br)cc2c(=O)n1/C=C/c1ccccc1O`, 54%. The same measure, in the same setting: then `Cc1nc2ccc(Br)cc2c(=O)n1/C=C/c1cc(O)cc(Cl)c1`, with 54%.

`Cc1nc2ccc(Br)cc2c(=O)n1/C=C/c1ccccc1F` displayed an Activity of 54%. For the compound `COc1ccc(/C=C/n2c(C)nc3ccc(Br)cc3c2=O)c(OC)c1`, the Activity came to 54%. With `Cc1nc2ccc(Br)cc2c(=O)n1/C=C/c1cccc([N+](=O)[O-])c1`, the Activity stood at 54%. In turn, `COc1cccc(/C=C/n2c(C)nc3ccc(Br)cc3c2=O)c1OC` gave an Activity of 54%. Same read-out and setting: as for `O=c1c2ccccc2nc(-c2ccccc2)n1/C=C/c1ccc(Cl)c([N+](=O)[O-])c1`, the figure is 54%.

In turn, `Cc1nc2ccc(Br)cc2c(=O)n1/C=C/c1cc([N+](=O)[O-])ccc1Cl` gave an Activity of 54%. `Cc1nc2ccc(Br)cc2c(=O)n1/C=C/c1ccc(F)c(F)c1` came in with an Activity of 54%. Same read-out and setting: then `Cc1nc2ccc(Br)cc2c(=O)n1/C=C/c1ccccc1C(F)(F)F`, with 54%; and `Cc1nc2ccc(Br)cc2c(=O)n1/C=C/c1cccc(Cl)c1`, with 54%. The same measure, in the same setting: as for `O=c1c2ccccc2nc(-c2ccccc2)n1/C=C/c1cc(Cl)cc(Cl)c1`, the figure is 54%; as for `Cc1nc2ccc(Br)cc2c(=O)n1/C=C/c1cccc(C(F)(F)F)c1F`, 54%.
